Laboratory results from PMC11558097, “Enhanced Tumor‐Targeted Delivery of Arginine‐Rich Peptides via a Positive Feedback Loop Orchestrated by Piezo1/integrin β1 Signaling Axis” (Advanced Science, 2024).
Ends that are not written are not given here.

Key:
T24 cells [1] = experiment: Cellular uptake pathways, flow cytometry with endocytosis inhibitors; type: cell-based, human; details: serum-free media
Description: (§1) Flow cytometry was used to measure the fluorescence signal. Cells were seeded in a 6‐well plate at 1.0 × 10^5 cells per well and treated with R11 peptides and a series of inhibitors for 4 h, including NaN3 (active uptake inhibitor, 20 mM), methyl‐β‐cyclodextrin (MβCD: lipid raft‐mediated endocytosis inhibitor, 5 µg mL^−1), EIPA (macropinocytosis inhibitor, […]), Chlorpromazine (CPZ: clathrin‐mediated endocytosis, 5 µg mL^−1) or Dynasore (dynamin‐dependent endocytosis inhibitor, […]) in serum‐free media at 37 °C or 4 °C for 4 h, respectively. Then, the cells were trypsinized, washed, and suspended in 1 mL PBS. The fluorescence intensity of 10 000 cells was measured using a BD LSR II flow cytometer.

[2] = system: BC cell lines (5637, T24, and 253J); experiment: Flow cytometry and fluorescence microscopy, uptake of R11 in BC cell lines versus control cells; type: cell-based, human; details: BC cell lines versus Raw264.7 and SV-HUC control cells, R11 100 nM
Description: as §1

bladder tumors = experiment: Mouse orthotopic BC model, IVIS imaging after intravesical instillation; type: in vivo; details: female nude mice, orthotopic integrin β1-GFP BC model
Description: All the animal experiments were carried out following guidelines approved by the ethics committee of Xi'an Jiaotong University, Xi'an, China. Female nude mice aged 4–6 weeks were randomly sorted. After gaseous anesthesia, an intravenous indwelling needle lubricated with paraffin cotton was inserted into the bladder and fixed well. Then, the urine was removed, and the bladder was rinsed with PBS 3 times. Next, the abdominal skin was disinfected by iodine tincture and cut open for approximately 1 cm. GFP‐integrin β1 cells (1 × 10^6/mL) were injected into the bladder wall with an insulin needle under direct visualization. Last, the abdominal wall was stitched and bound with gauze. After 7 days, the effect of bladder tumor implantation was observed. After intravesical perfusion of R11 peptides or gold nanoparticles, tumor‐bearing mice were detected using an in vivo imaging system/IVIS (AniView) to take images. In addition, frozen sections of the tumors were stained with DAPI, and the fluorescence of each section of the tumor was analyzed by fluorescence microscopy.

Piezo1 in T24 cells = experiment: Flow cytometry of Ca2+ signal and R11 uptake with Piezo1 agonist or inhibitor; type: cell-based, human; details: for effect on R11 uptake efficiency and Ca2+ release: T24 cells exposed to R11, Yoda1 10 nM, GsMTx4 2.5 nM
T24 cells [3] = experiment: Antibody block assay (integrin α2β1 antibody), R11 uptake by flow cytometry; type: cell-based, human; details: Anti-integrin α2β1 5 ug/mL for 2 h
Description: (§2) Antibody integrin α2β1 (ab30483) used for blocking the binding motif was purchased from ABCAM. Cells were planted in the 6‐well plates and treated with Anti‐integrin α2β1 (5 ug/mL). After incubation for 2 h, the cells were treated with R11 peptides and collected. Then, the cells were trypsinized, washed, and suspended in 1 mL PBS. The fluorescence intensity of 10 000 cells was measured using flow cytometer.

253J cells = experiment: as above; type: cell-based, human; details: Anti-integrin α2β1 5 ug/mL for 2 h
Description: as §2

[4] = target: T1, integrin β1 (standard of an integrin β1 ELISA kit) (UniProt P05556 21-728); experiment: ELISA; integrin β1 standards (0.5 µg/mL) added to the microplate wells of an integrin β1 ELISA kit, in triplicate; R11-TRITC serially diluted in PBS (0.001-10 000 nM), 2 h at 37 °C; washed; fluorescence of the bound peptide read on a microplate reader; details: both partners purified
T1 construct: integrin β1 (ITGB1), standard protein of a commercial ELISA kit; also called ITGB1; integrin β1 standards; source: bought: standard of the integrin β1 ELISA kit, Shanghai Westang Bio-Tech CO., LTD
T1 sequence (P05556 21-728): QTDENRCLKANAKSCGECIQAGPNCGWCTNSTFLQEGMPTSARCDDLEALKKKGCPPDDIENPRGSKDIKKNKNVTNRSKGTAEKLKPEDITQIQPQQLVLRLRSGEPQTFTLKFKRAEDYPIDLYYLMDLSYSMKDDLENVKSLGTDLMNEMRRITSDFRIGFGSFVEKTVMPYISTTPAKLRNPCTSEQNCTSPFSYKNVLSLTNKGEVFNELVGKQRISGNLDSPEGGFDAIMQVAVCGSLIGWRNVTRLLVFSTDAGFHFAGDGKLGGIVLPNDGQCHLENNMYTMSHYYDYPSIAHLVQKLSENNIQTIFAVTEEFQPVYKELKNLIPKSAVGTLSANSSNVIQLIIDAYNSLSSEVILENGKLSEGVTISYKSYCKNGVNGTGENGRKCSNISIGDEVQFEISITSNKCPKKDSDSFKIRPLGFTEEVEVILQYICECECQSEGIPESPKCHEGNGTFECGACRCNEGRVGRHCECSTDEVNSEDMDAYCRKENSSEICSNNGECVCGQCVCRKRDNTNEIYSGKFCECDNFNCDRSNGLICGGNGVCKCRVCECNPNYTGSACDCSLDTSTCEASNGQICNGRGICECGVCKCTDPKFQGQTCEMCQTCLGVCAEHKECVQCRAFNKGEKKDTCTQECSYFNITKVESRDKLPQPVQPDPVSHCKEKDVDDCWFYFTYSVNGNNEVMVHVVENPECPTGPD

Molecule: N=C(N)NCCC[C@H](NC(=O)[C@H](CCCNC(=N)N)NC(=O)[C@H](CCCNC(=N)N)NC(=O)[C@H](CCCNC(=N)N)NC(=O)[C@H](CCCNC(=N)N)NC(=O)[C@H](CCCNC(=N)N)NC(=O)[C@H](CCCNC(=N)N)NC(=O)[C@H](CCCNC(=N)N)NC(=O)[C@H](CCCNC(=N)N)NC(=O)[C@H](CCCNC(=N)N)NC(=O)[C@H](CCCNC(=N)N)NC(=O)CN)C(=O)O [R11, hendeca‐arginine peptide]
- uptake of R11 with Dynasore (T24 cells [1]; Dynasore 80 µmol mL^−1, 4 h): inhibited uptake partly
- uptake of R11 with EIPA (T24 cells [1]; EIPA (macropinocytosis inhibitor) 10 µmol mL^−1, 4 h): suppressed nearly half
- uptake of R11 with NaN3 and 4 °C (T24 cells [1]; NaN3 20 mM or 4 °C, 4 h): blocked
- fluorescence signal of R11 (uptake) [2]: stronger fluorescence signal in BC cell lines compared to control cells
- identification of bladder tumors in vivo (IVIS) (bladder tumors): successfully identified bladder tumors in vivo but not adjacent kidney tissues
- Ca2+ signal (Piezo1 in T24 cells; T24 cells, varying R11 concentrations): increased consistently with the concentration of R11 peptides
- uptake of R11 peptides after blocking integrin α2β1 (T24 cells [3]): completely inhibited
- uptake of R11 peptides after blocking integrin α2β1 (253J cells): completely inhibited

Molecule: GsMTx4
- effect on R11 uptake efficiency and Ca2+ release (Piezo1 in T24 cells): opposite effect

Molecule: Clc1cccc(Cl)c1CSc1nnc(-c2cnccn2)s1 [Yoda1]
- effect on R11 uptake efficiency and Ca2+ release (Piezo1 in T24 cells): enhanced both the uptake efficiency and Ca^2+ release

B1: hendeca-arginine peptide (R11), GRRRRRRRRRRR-TRITC (peptide)
peptide: GRRRRRRRRRRR-{TRITC}
notes: designed cell-penetrating peptide: glycine followed by 11 arginines; also called R11 peptides; arginine-rich peptides; source: synthetic peptide, synthesized and purified by GL Biochem Ltd (Shanghai, China)
- EC50 [4]: 5.97 nM
